Blank lines part the entries; values can stand above or below the compound they belong to.
Tests used:
[1] = target: Beta-1 adrenergic receptor (Homo sapiens, UniProt P08588); type: functional, cell-based
Androgen receptor = target: T1, Androgen receptor (Rattus norvegicus, UniProt P15207); type: functional
T1 sequence (P15207 whole entry): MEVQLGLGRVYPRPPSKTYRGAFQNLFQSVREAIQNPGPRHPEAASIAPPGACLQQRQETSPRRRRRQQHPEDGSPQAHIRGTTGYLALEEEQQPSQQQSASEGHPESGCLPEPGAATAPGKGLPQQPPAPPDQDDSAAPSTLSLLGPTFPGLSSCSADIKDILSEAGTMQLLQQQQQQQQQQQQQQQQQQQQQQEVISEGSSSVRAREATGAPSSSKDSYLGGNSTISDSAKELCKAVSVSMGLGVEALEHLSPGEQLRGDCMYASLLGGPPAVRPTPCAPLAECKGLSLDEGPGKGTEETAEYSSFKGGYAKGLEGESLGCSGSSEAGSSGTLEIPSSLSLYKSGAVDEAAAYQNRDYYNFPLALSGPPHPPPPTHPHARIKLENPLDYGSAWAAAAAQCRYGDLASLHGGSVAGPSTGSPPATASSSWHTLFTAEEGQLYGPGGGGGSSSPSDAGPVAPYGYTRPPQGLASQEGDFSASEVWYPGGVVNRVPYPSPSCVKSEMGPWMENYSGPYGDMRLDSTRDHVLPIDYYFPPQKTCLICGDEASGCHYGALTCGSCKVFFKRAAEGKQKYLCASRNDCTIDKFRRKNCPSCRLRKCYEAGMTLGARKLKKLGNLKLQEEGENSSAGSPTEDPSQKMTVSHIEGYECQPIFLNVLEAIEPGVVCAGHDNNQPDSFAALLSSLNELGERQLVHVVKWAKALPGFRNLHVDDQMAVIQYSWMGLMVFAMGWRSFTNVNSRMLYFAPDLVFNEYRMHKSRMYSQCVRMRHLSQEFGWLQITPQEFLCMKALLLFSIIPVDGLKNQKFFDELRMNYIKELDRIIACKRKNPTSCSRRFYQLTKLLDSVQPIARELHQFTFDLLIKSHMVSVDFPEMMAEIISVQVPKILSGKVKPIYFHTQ

[2] = target: T2, Muscarinic acetylcholine receptor M5 (Homo sapiens, UniProt P08912)
T2 sequence (P08912 whole entry): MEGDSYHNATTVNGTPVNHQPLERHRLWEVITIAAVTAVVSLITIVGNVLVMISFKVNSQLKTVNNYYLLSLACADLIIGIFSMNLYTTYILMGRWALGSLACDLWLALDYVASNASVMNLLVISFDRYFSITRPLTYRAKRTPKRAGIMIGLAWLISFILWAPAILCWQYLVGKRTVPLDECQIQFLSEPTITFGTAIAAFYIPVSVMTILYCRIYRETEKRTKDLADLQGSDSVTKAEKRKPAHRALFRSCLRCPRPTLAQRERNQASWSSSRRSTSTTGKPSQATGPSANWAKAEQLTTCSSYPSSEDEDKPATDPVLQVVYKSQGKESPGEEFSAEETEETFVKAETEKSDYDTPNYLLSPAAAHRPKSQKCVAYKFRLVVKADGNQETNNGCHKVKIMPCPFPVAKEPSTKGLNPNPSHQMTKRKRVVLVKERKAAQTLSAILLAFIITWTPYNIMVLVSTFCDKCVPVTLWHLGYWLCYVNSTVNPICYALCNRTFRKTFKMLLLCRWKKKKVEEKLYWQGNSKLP

[3] = target: T3, Corticotropin-releasing factor receptor 2 (Homo sapiens, UniProt Q13324)
T3 sequence (Q13324 whole entry): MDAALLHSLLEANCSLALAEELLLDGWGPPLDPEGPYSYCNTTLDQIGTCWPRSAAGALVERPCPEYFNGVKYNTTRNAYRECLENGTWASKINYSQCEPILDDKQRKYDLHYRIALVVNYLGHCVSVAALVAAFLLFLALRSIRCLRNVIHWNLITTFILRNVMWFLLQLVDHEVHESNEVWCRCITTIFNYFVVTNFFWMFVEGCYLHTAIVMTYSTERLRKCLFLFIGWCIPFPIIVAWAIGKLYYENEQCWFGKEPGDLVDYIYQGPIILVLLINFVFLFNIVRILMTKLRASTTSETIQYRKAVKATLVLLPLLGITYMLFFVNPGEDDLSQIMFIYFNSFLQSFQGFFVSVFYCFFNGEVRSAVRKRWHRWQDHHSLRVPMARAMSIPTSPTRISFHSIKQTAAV

D(4) dopamine receptor = target: T4, D(4) dopamine receptor (Homo sapiens, UniProt P21917)
T4 sequence (P21917 whole entry): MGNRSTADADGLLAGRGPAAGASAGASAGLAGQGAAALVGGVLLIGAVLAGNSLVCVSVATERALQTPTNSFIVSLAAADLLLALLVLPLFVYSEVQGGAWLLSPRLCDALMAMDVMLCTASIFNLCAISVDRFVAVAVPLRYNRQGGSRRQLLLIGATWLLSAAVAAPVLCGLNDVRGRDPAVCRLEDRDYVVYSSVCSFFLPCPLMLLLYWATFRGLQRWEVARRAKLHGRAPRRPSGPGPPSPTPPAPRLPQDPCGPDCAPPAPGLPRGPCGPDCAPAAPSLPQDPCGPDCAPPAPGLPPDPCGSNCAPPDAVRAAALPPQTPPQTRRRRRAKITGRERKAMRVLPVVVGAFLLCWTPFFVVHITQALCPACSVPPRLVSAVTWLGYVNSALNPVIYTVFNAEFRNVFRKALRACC

[4] = target: T5, Gastric inhibitory polypeptide receptor (Homo sapiens, UniProt P48546)
T5 sequence (P48546 whole entry): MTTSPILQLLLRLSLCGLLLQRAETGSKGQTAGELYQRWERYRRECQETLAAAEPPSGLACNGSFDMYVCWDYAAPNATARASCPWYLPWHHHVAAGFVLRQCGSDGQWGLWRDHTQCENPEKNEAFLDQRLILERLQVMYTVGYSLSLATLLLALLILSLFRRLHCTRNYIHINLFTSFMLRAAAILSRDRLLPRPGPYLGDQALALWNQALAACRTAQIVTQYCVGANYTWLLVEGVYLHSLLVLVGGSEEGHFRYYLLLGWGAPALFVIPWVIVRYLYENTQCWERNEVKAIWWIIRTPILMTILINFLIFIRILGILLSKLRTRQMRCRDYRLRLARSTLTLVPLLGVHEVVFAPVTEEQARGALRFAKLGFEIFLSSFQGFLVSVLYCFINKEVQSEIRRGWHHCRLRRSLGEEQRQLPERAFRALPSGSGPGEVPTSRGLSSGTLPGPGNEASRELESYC

Histamine H2 receptor = Histamine H2 receptor (Homo sapiens, UniProt P25021)
Chain of Histamine H2 receptor (P25021 whole entry): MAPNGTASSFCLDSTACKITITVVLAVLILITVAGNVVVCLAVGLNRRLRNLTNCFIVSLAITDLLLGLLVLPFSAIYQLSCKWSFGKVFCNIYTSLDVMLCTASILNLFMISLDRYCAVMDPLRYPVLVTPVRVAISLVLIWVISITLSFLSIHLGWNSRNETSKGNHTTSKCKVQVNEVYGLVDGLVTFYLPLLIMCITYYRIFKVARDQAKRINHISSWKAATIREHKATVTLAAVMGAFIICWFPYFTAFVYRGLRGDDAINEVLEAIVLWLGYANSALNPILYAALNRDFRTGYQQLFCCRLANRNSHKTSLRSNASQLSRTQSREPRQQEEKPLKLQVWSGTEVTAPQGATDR

[5] = target: 5-hydroxytryptamine receptor 6 (Homo sapiens, UniProt P50406)
Chain of 5-hydroxytryptamine receptor 6 (P50406 whole entry): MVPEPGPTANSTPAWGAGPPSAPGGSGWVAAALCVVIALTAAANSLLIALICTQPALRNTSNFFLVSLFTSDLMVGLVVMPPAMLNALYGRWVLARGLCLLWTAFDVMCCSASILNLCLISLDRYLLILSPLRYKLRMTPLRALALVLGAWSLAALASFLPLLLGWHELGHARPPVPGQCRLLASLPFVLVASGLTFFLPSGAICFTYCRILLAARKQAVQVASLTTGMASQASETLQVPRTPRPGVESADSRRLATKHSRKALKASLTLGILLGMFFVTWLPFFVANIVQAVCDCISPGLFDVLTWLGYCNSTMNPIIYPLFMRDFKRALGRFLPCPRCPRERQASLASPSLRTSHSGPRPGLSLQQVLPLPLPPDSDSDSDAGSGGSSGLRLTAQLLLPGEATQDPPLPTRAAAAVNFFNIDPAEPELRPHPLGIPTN

[6] = target: 5-hydroxytryptamine receptor 2A (Homo sapiens, UniProt P28223)
Chain of 5-hydroxytryptamine receptor 2A (P28223 whole entry): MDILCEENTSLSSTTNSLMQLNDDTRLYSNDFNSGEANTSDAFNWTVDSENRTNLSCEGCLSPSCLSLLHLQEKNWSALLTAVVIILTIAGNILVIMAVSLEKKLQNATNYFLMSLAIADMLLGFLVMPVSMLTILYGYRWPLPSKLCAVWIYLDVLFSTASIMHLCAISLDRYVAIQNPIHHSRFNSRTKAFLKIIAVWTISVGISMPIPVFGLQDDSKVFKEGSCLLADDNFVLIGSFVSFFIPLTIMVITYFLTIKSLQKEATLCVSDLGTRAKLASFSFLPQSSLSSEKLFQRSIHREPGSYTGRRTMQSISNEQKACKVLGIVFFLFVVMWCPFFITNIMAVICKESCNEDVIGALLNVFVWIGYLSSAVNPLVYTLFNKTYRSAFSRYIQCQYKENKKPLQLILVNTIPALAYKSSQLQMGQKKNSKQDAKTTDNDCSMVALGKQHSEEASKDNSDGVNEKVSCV
Also: assay procedure not described here.

Chain of Beta-1 adrenergic receptor (P08588 whole entry): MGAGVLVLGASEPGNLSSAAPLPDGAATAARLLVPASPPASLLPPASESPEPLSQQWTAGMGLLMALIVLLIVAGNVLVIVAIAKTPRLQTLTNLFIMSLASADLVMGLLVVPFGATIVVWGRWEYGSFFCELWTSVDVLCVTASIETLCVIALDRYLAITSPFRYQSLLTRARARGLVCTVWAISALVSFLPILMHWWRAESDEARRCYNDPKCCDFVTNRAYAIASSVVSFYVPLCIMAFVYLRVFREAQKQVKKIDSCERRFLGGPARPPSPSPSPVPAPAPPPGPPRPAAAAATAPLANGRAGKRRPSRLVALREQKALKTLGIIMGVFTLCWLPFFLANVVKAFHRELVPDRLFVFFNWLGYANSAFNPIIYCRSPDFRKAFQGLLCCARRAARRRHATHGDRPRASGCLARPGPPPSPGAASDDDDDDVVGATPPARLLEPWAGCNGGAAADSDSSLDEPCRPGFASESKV

Compound: CC(C)(Oc1ccc(Cl)cc1)C(=O)OCCOC(=O)c1cccnc1 [ETOFIBRATE]
AC50 [1]: > 30 µM
AC50 (Androgen receptor): > 30 µM

Compound: N=C(N)NC(=O)c1nc(Cl)c(N)nc1N [AMILORIDE]
AC50 [2]: > 10 µM
AC50 [3]: > 30 µM
AC50 (D(4) dopamine receptor): > 10 µM
AC50 [4]: > 30 µM
AC50 (Histamine H2 receptor): > 10 µM
AC50 [5]: > 10 µM

Compound: Cc1ccc(O)c([C@H](CCN(C(C)C)C(C)C)c2ccccc2)c1 [TOLTERODINE]
AC50 [2]: 0.0065 µM
AC50 (D(4) dopamine receptor): > 10 µM
AC50 (Histamine H2 receptor): 3.2 µM
AC50 [5]: > 10 µM
AC50 [6]: 8.84 µM

Compound: CCC(=O)c1ccc2c(c1)N(CC(C)N(C)C)c1ccccc1S2 (stereo not drawn) [PROPIOMAZINE]
AC50 [6]: 0.0233 µM

The next lines start with the values.

AC50 [3]: > 30 µM
AC50 [4]: > 30 µM
Compound: C[C@]12C=CC(=O)C=C1CC[C@@H]1[C@@H]2[C@@H](O)C[C@@]2(C)[C@H]1CC[C@]2(O)C(=O)CO [PREDNISOLONE]

AC50 (Androgen receptor): > 30 µM
Compound: C[C@]12C=CC(=O)C=C1C(Cl)=C[C@@H]1[C@@H]2[C@@H](O)C[C@@]2(C)[C@H]1CC[C@]2(O)C(=O)CO [CLOPREDNOL]

AC50 [1]: > 30 µM
Compound: C[C@]12CCC(=O)C=C1C=C[C@@H]1[C@@H]2CC[C@@]2(C)[C@H]1CC[C@@]21CCC(=O)O1 [CANRENONE]
